Where two headings read alike, the source gives them in different places.
Legend:
[1] = tested on: CD11b (macrophage) monocytes; assay: FITC-PIF assay, binding to CD11b monocytes; conditions: for CD11b %: FITC-PIF binding
CD19 (B cell) monocytes = assay: FITC-PIF assay, binding to CD19 monocytes
[2] = biological target: insulin degrading enzyme (IDE) (Homo sapiens, UniProt P14735); assay: Fluorescent based thermal shift assay; assay type: binding; conditions: ligands 10 uM, receptor 1 uM
Experimental: Concentrations of the ligands 10 uM and 1 uM of the receptor, buffer consisting of 10 mM HEPES-HCL, 150 mM […], and protein folding sensitive dye SyO 1:1000.
(§1) (FIG. 2). […] (FIG. 3). […] (FIG. 4). […] Thus dependent on the target Kv1.3 or IDE the mutated PIF-1 can have a target-specific effect which can also translate to diverse biological activity.

Jurkat T-cells = assay: K+ flux inhibition in Jurkat T-cells; assay type: cell-based; conditions: compared with control
From the text: as §1

let-7 = let-7 microRNA levels in microglia and neural cell lines; assay type: cell-based
From the text: as §1
This direct effect on target cells was confirmed by targeting microglia and neuron cell line (Neu) in vitro (FIGS. 5C, D). […] Phosphorylated CREB in turn facilitates expression of (Gap43, Bdnf and Bcl2) (FIG. 5F) that play important role regulating neuronal growth, survival, which is dependent on TLR4 signaling (FIG. 5G). PKA/PKC was reported to impart TBI (Lucke-Wold, Logsdon et al. 2014; Zohar, Lavy et al. 2011; Titus 2013). […] For currently used neuroprotective drugs ability to reach the brain in both intact and damaged settings is difficult. Therefore frequently drugs in order to pass the BBB they have to be very small, or have to be added to agents that would favor passage.

Row | Tm / thermal shift compared to PIF(wt) ([2]; listed as PIF(mutant-3)) | Tm / thermal shift compared to PIF(wt) ([2]; listed as mut-3) | Tm / thermal shift compared to PIF(wt) ([2]; listed as PIF(mutant-1)) | Tm / thermal shift compared to PIF(wt) ([2]; listed as mut-1) | Sequence | binding affinity to CD11b monocytes compared to natural PIF [1] | CD11b % [1] | CD19 % (CD19 (B cell) monocytes) | binding affinity to CD19 monocytes compared to natural PIF (CD19 (B cell) monocytes) | effect on K+ flux (Jurkat T-cells) | CD19 % (CD19 (B cell) monocytes; FITC-PIF binding) | effect on let-7 microRNA (let-7)
1 | – | – | – | – | AVRIKPGSANKPSDD [SEQ ID NO: 10] | higher binding affinity | 33.54% | 5.90% | higher binding affinity | – | – | –
2 | increased Tm | activity was decreased | – | – | MVRGKPGSANKPSDD [SEQ ID NO: 8, PIF mutant] | higher binding affinity | 35.48% | – | higher binding affinity | no effect | 5.60% | lack of effect
3 | – | – | decreased Tm | reduced thermal shift | MVRIKEGSANKPSDD [SEQ ID NO: 7, PIF mutant] | – | – | – | – | no effect | – | –
